Assay results from patent publication US11564923B2, “Compounds and pharmaceutical compositions thereof for the treatment of inflammatory disorders” (Galapagos NV, priority 2017, dated 2023).
Structures can show the parent of a compound that is named as a salt.

Assays:
[1] = tested on: IL-12 activation of STAT4 in NK-92 cells; assay: IL-12 activation of STAT4 in NK-92 cells using AphaLISA SureFire technology; assay type: cell-based; conditions: Homo sapiens, NK92; IL-12 activation of STAT4 in NK-92 cells, AlphaLISA SureFire; average IC50; read-out: IL12 pSTAT4 IC50
Method in brief: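 NK-92 cells, starved of rhIL-2 overnight, were stimulated with rhIL-12 for 30 min at 37 °C with test compounds, then lysed. Phospho-STAT4 (Tyr693) was read by AlphaLISA SureFire. Percent inhibition versus the vehicle-plus-trigger signal was fitted by sigmoidal nonlinear regression to give IC50, averaged over experiments.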

[2] = target: T1, Recombinant human JAK1 (catalytic domain, amino acids 866-1154) (Homo sapiens, UniProt P23458); assay: JAK1 inhibition assay; assay type: biochemical; conditions: read-out: JAK1 potency IC50
T1 construct: catalytic domain, amino acids 866-1154

[3] = tested on: IFNα activation of STAT1 in PBMC; assay: IFNα activation of STAT1 in PBMC; assay type: cell-based; conditions: Homo sapiens; IFNα activation of STAT1 in PBMC; average IC50; read-out: IFNα signaling inhibitory potency IC50
Method in brief: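 Human PBMC, with red cells lysed by NH4Cl, were pre-treated with compound for 30 min at 37 °C and 5% CO2. They were then stimulated for 30 min with recombinant human IFNα at 5 ng/mL final.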

[4] = target: T2, Recombinant human TYK2 catalytic domain (amino acids 871-1187) (Homo sapiens, UniProt P29597); assay: TYK2 radioactive assay polyGT substrate; assay type: biochemical; also: 0.1 µM ATP
T2 construct: catalytic domain (amino acids 871-1187)
T2 sequence (P29597 871-1187): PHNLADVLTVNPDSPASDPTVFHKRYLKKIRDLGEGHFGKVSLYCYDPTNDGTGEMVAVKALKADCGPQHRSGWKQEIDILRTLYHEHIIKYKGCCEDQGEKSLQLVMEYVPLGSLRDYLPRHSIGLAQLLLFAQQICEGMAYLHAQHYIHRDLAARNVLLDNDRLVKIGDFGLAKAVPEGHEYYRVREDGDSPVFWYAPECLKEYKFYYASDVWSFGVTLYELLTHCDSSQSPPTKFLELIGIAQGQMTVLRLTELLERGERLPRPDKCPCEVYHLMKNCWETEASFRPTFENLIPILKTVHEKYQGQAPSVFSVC
Method in brief: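 Reaction at 30° C. for 120 min, ended with 150 mM phosphoric acid, washed, counted; percent inhibition scaled between vehicle and 10 μM staurosporine cpm.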

[5] = target: T3, Recombinant human JAK2 (catalytic domain, amino acids 808-1132) (Homo sapiens, UniProt O60674); assay: JAK2 inhibition assay; assay type: biochemical; conditions: read-out: JAK2 potency IC50; also: 0.7 µM ATP
T3 construct: catalytic domain, amino acids 808-1132

[6] = target: Recombinant human JAK3 catalytic domain (amino acids 781-1124) (Homo sapiens, UniProt P52333); assay: JAK3 inhibition assay; assay type: biochemical
Description: After 45 min at 30° C., reactions are stopped by adding 25 μL/well of 150 mM phosphoric acid. […] Plates are washed 6 times with 300 μL per well of a 75 mM phosphoric acid solution and the bottom of the plates is sealed. […] Kinase activity is calculated by subtracting counts per min (cpm) obtained in the presence of a positive control inhibitor (10 μM staurosporine) from cpm obtained in the presence of vehicle. The ability of a test compound to inhibit this activity (or percentage inhibition) is determined as: […]
cpm test compound=cpm determined for sample with test compound present cpm control=cpm determined for sample with positive control inhibitor cpm vehicle=cpm determined in the presence of vehicle
Dose dilution series were prepared for the compounds enabling the testing of dose-response effects in the JAK3 assay and the calculation of the IC50 for each compound. Each compound is routinely tested at concentration of 20 μM followed by a 1/5 serial dilution, 10 points in a final concentration of 1% DMSO.

T3 sequence (O60674 808-1132): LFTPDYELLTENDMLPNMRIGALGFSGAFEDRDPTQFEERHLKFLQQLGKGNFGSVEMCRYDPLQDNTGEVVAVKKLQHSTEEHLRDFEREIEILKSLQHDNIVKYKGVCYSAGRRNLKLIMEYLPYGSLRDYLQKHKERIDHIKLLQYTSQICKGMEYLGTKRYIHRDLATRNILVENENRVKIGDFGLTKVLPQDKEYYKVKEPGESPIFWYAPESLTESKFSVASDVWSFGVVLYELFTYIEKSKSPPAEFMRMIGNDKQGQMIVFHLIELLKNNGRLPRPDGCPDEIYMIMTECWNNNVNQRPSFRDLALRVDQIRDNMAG
Sequence of Recombinant human JAK3 catalytic domain (amino acids 781-1124) (P52333 781-1124): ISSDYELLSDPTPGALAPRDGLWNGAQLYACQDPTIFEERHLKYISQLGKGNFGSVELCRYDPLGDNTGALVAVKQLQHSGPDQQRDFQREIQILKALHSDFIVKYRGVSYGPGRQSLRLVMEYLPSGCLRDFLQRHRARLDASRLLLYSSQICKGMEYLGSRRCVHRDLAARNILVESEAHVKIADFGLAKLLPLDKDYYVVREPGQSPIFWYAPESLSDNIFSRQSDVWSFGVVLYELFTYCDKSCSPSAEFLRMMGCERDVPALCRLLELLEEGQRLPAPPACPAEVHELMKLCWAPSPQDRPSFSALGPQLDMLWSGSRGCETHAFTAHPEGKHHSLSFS
T1 sequence (P23458 866-1154): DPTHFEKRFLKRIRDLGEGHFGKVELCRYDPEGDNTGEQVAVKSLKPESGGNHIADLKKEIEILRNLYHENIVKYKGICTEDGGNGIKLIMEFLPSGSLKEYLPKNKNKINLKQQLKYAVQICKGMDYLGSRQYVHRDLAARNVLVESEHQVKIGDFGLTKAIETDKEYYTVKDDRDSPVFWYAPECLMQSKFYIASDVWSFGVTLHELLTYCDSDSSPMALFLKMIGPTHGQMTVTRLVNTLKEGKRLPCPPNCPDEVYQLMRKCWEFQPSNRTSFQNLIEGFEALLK

Row | Structure (SMILES) | IC50 [1] | IC50 [2] | IC50 [3] | IC50 [4] | IC50 [5] | IC50 [6]
1 | Cc1cc(C#N)ncc1Oc1cc(Nc2cnn(C)c2)c2ncn(C)c2n1 [Compound 61, 4-methyl-5-[3-methyl-7-[(1-methylpyrazol-4-yl)amino]imidazo[4,5-b]pyridin-5-yl]oxy-pyridine-2-carbonitrile] | 221 nM | 60.3 nM | 112 nM | 10.3 nM | 58.4 nM | 1110 nM
2 | CC(C)C(Nc1cc(Nc2ccc(S(C)(=O)=O)cn2)c2ncn(C)c2n1)C(F)(F)F (stereo not drawn) [Compound 65, 3-methyl-N7-(5-methylsulfonyl-2-pyridiyl)-N5-[2-methyl-1-(trifluoromethyl)propyl]imidazo[4,5-b]pyridine-5,7-diamine] | 80 nM | 69.4 nM | 96 nM | 7.84 nM | 12.4 nM | 69.7 nM
3 | COCCCS(=O)(=O)c1ccc(Nc2cc(Oc3cnc(C#N)cc3C)nc3c2ncn3C)cc1 [Compound 71, 5-[7-[4-(3-methoxypropylsulfonyl)anilino]-3-methyl-imidazo[4,5-b]pyridin-5-yl]oxy-4-methyl-pyridine-2-carbonitrile] | 128 nM | 103 nM | 111 nM | 13.6 nM | 86.2 nM | 1080 nM
4 | CCNC(c1ccc(Nc2cc(Oc3cnc(C#N)cc3C)nc3c2ncn3C)nc1)C(F)(F)F (stereo not drawn) [Compound 80, 5-[7-[[5-[1-(ethylamino)-2,2,2-trifluoroethyl]pyridin-2-yl]amino]-3-methylimidazo[4,5-b]pyridin-5-yl]oxy-4-methylpyridine-2-carbonitrile] | 83 nM | 19.9 nM | 93 nM | 2.22 nM | 5.2 nM | 392 nM
5 | Cc1cc(C#N)ncc1Oc1cc(Nc2ccc(CN(C)C)cn2)c2ncn(C)c2n1 [Compound 81, 5-[7-[[5-[(dimethylamino)methyl]pyridin-2-yl]amino]-3-methylimidazo[4,5-b]pyridin-5-yl]oxy-4-methylpyridine-2-carbonitrile formate salt] | 224 nM | 150 nM | 56 nM | 6.83 nM | 10.4 nM | 386 nM
6 | COc1ccc(Nc2cc(Oc3cnc(C#N)cc3C)nc3c2ncn3C)nc1 [Compound 84, 5-[7-[(5-methoxypyridin-2-yl)amino]-3-methylimidazo[4,5-b]pyridin-5-yl]oxy-4-methylpyridine-2-carbonitrile] | 87 nM | 57.1 nM | 178 nM | 11 nM | 45.5 nM | 908 nM
7 | Cc1cc(C#N)ncc1Oc1cc(Nc2ccc(N3CCOC[C@@H]3C)cn2)c2ncn(C)c2n1 [Compound 85, 4-methyl-5-[3-methyl-7-[[5-[(3S)-3-methylmorpholin-4-yl]pyridin-2-yl]amino]imidazo[4,5-b]pyridin-5-yl]oxypyridine-2-carbonitrile] | 154 nM | 30.4 nM | 115 nM | 4.81 nM | 10.5 nM | 479 nM
8 | Cc1cc(C#N)ncc1Oc1cc(Nc2ccc(OC3CCN(C)CC3)cn2)c2ncn(C)c2n1 [Compound 86, 4-methyl-5-[3-methyl-7-[[5-(1-methylpiperidin-4-yl)oxypyridin-2-yl]amino]imidazo[4,5-b]pyridin-5-yl]oxypyridine-2-carbonitrile] | 506 nM | 197 nM | 121 nM | 9.06 nM | 22.9 nM | 446 nM
9 | Cc1cc(C#N)ncc1Oc1cc(Nc2ccc(C3CCOCC3)cn2)c2ncn(C)c2n1 [Compound 87, 4-methyl-5-[3-methyl-7-[[5-(oxan-4-yl)pyridin-2-yl]amino]imidazo[4,5-b]pyridin-5-yl]oxypyridine-2-carbonitrile] | 266 nM | 73.1 nM | 158 nM | 8.81 nM | 38.8 nM | 979 nM
10 | Cc1cc(C#N)ncc1Oc1cc(Nc2ccc(C3(O)COC3)cc2)c2ncn(C)c2n1 [Compound 89, 5-[7-[4-(3-hydroxyoxetan-3-yl)anilino]-3-methylimidazo[4,5-b]pyridin-5-yl]oxy-4-methylpyridine-2-carbonitrile] | 476 nM | 71.5 nM | 266 nM | 11 nM | 110 nM | 1990 nM
11 | CC(C)[C@@H](Nc1cc(Nc2cc(N)ncn2)c2ncn(C)c2n1)C(F)(F)F [Compound 98, N7-(6-aminopyrimidin-4-yl)-3-methyl-N5-[(1R)-2-methyl-1-(trifluoromethyl)propyl]imidazo[4,5-b]pyridine-5,7-diamine] | 18.9 nM | 28.2 nM | 38 nM | 3.04 nM | 6.31 nM | 48.2 nM
12 | Cc1cc(C#N)ncc1Oc1cc(Nc2ccc(C(=O)N3CC(O)C3)nn2)c2ncn(C)c2n1 [Compound 115, 5-[7-[[6-(3-hydroxyazetidine-1-carbonyl)pyridazin-3-yl]amino]-3-methyl-imidazo[4,5-b]pyridin-5-yl]oxy-4-methyl-pyridine-2-carbonitrile] | 968 nM | 107 nM | 144 nM | 8.88 nM | 29.1 nM | 2110 nM
13 | COC1CN(C(=O)c2ccc(Nc3cc(Oc4cnc(C#N)cc4C)nc4c3ncn4C)nn2)C1 [Compound 116, 5-[7-[[6-(3-methoxyazetidine-1-carbonyl)pyridazin-3-yl]amino]-3-methyl-imidazo[4,5-b]pyridin-5-yl]oxy-4-methyl-pyridine-2-carbonitrile] | 79 nM | 151 nM | 113 nM | 5.41 nM | 28.3 nM | 1200 nM
14 | COCC1CN(C(=O)c2ccc(Nc3cc(Oc4cnc(C#N)cc4C)nc4c3ncn4C)nn2)C1 [Compound 117, 5-[7-[[6-[3-(methoxymethyl)azetidine-1-carbonyl]pyridazin-3-yl]amino]-3-methyl-imidazo[4,5-b]pyridin-5-yl]oxy-4-methyl-pyridine-2-carbonitrile] | 181 nM | 205 nM | 148 nM | 8.47 nM | 32.3 nM | 2030 nM
15 | Cc1cc(C#N)ncc1Oc1cc(Nc2ccc(N3CCNCC3)cn2)c2ncn(C)c2n1 [Compound 180, 4-methyl-5-[3-methyl-7-[(5-piperazin-1-yl-2-pyridyl)amino]imidazo[4,5-b]pyridin-5-yl]oxy-pyridine-2-carbonitrile] | 769 nM | 81.7 nM | 84 nM | 6.61 nM | 18.2 nM | 409 nM
16 | Cc1cc(C#N)ncc1Oc1cc(Nc2cnn(CCN3CCOCC3)c2)c2ncn(C)c2n1 [Compound 186, 4-methyl-5-[3-methyl-7-[[1-(2-morpholinoethyl)pyrazol-4-yl]amino]imidazo[4,5-b]pyridin-5-yl]oxy-pyridine-2-carbonitrile] | 241 nM | 77.2 nM | 229 nM | 6.27 nM | 22.2 nM | 257 nM
